According to PubChem BioAssay (NCI):
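Tested at 5 concentrations; 48 h exposure; 96-well plates; endpoints linearly interpolated, else capped at highest concentration. The concentration for 50% growth inhibition is given as GI50. The concentration for full growth arrest is given as TGI.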

Columns and labels:
Test in all cases: growth of human tumour cells (NCI), 48 h
NCI/ADR-RES ovarian = test system: NCI/ADR-RES ovarian
SF-539 CNS = test system: SF-539 CNS
PC-3 prostate = test system: PC-3 prostate
HOP-62 NSCLC = test system: HOP-62 NSCLC
SK-OV-3 ovarian = test system: SK-OV-3 ovarian
MOLT-4 leukemia = test system: MOLT-4 leukemia
RPMI-8226 leukemia = test system: RPMI-8226 leukemia
UACC-257 melanoma = test system: UACC-257 melanoma
MCF7 breast = test system: MCF7 breast
IGROV1 ovarian = test system: IGROV1 ovarian
TK-10 renal = test system: TK-10 renal
786-0 renal = test system: 786-0 renal
SK-MEL-2 melanoma = test system: SK-MEL-2 melanoma
CAKI-1 renal = test system: CAKI-1 renal
MDA-MB-231 breast = test system: MDA-MB-231 breast
SNB-75 CNS = test system: SNB-75 CNS
OVCAR-8 ovarian = test system: OVCAR-8 ovarian
UACC-62 melanoma = test system: UACC-62 melanoma
SK-MEL-28 melanoma = test system: SK-MEL-28 melanoma
LOX IMVI melanoma = test system: LOX IMVI melanoma
A549 NSCLC = test system: A549 NSCLC
U251 CNS = test system: U251 CNS
RXF 393 renal = test system: RXF 393 renal
SW-620 colon = test system: SW-620 colon
KM12 colon = test system: KM12 colon
BT-549 breast = test system: BT-549 breast
HS 578T breast = test system: HS 578T breast
MDA-MB-435 = test system: MDA-MB-435
SNB-19 CNS = test system: SNB-19 CNS
DU-145 prostate = test system: DU-145 prostate
OVCAR-4 ovarian = test system: OVCAR-4 ovarian
HT29 colon = test system: HT29 colon
SN12C renal = test system: SN12C renal
HCT-116 colon = test system: HCT-116 colon
OVCAR-3 ovarian = test system: OVCAR-3 ovarian
T-47D breast = test system: T-47D breast
ACHN renal = test system: ACHN renal
EKVX NSCLC = test system: EKVX NSCLC
SF-295 CNS = test system: SF-295 CNS
HL-60(TB) leukemia = test system: HL-60(TB) leukemia
HCC-2998 colon = test system: HCC-2998 colon
M14 melanoma = test system: M14 melanoma
SR leukemia = test system: SR leukemia
SF-268 CNS = test system: SF-268 CNS
SK-MEL-5 melanoma = test system: SK-MEL-5 melanoma
NCI-H460 lung = test system: NCI-H460 lung
HOP-92 NSCLC = test system: HOP-92 NSCLC
K-562 leukemia = test system: K-562 leukemia
NCI-H226 lung = test system: NCI-H226 lung
MALME-3M melanoma = test system: MALME-3M melanoma
COLO 205 colon = test system: COLO 205 colon
NCI-H23 lung = test system: NCI-H23 lung
NCI-H522 lung = test system: NCI-H522 lung
UO-31 renal = test system: UO-31 renal
CCRF-CEM leukemia = test system: CCRF-CEM leukemia
HCT-15 colon = test system: HCT-15 colon
A498 renal = test system: A498 renal
OVCAR-5 ovarian = test system: OVCAR-5 ovarian
MDA-N = test system: MDA-N

C#CCN1C(=O)/C(=c2\sc3n(c2=O)C2C(NN=3)N(CC)C(=O)N2CC)c2ccccc21 (stereo unspecified)
GI50 (NCI/ADR-RES ovarian): 0.712 µM | TGI (NCI/ADR-RES ovarian): 21.9 µM | GI50 (SF-539 CNS): 0.295 µM | TGI (SF-539 CNS): 1.4 µM | GI50 (PC-3 prostate): 0.463 µM | TGI (PC-3 prostate): > 100 µM | GI50 (HOP-62 NSCLC): 0.868 µM | TGI (HOP-62 NSCLC): > 52.6 µM | GI50 (SK-OV-3 ovarian): 3.11 µM | TGI (SK-OV-3 ovarian): > 100 µM | GI50 (MOLT-4 leukemia): 0.708 µM | TGI (MOLT-4 leukemia): > 100 µM | GI50 (RPMI-8226 leukemia): 0.375 µM | GI50 (UACC-257 melanoma): 49.2 µM | TGI (UACC-257 melanoma): > 100 µM | GI50 (MCF7 breast): 0.377 µM | TGI (MCF7 breast): > 100 µM | GI50 (IGROV1 ovarian): 0.589 µM | TGI (IGROV1 ovarian): > 91.1 µM | GI50 (TK-10 renal): 14.1 µM | TGI (TK-10 renal): 51.4 µM | GI50 (786-0 renal): 0.669 µM | TGI (786-0 renal): 22.5 µM | GI50 (SK-MEL-2 melanoma): 3.21 µM | TGI (SK-MEL-2 melanoma): > 100 µM | GI50 (CAKI-1 renal): 0.459 µM | TGI (CAKI-1 renal): > 54.2 µM | GI50 (MDA-MB-231 breast): 2.07 µM | TGI (MDA-MB-231 breast): 40 µM | GI50 (SNB-75 CNS): 0.25 µM | TGI (SNB-75 CNS): 0.997 µM | GI50 (OVCAR-8 ovarian): 1.07 µM | TGI (OVCAR-8 ovarian): > 100 µM | GI50 (UACC-62 melanoma): 0.453 µM | TGI (UACC-62 melanoma): > 74.1 µM | GI50 (SK-MEL-28 melanoma): 0.734 µM | TGI (SK-MEL-28 melanoma): > 100 µM | GI50 (LOX IMVI melanoma): 0.73 µM | TGI (LOX IMVI melanoma): > 100 µM | GI50 (A549 NSCLC): 0.968 µM | TGI (A549 NSCLC): > 100 µM | GI50 (U251 CNS): 0.648 µM | TGI (U251 CNS): > 47 µM | GI50 (RXF 393 renal): 0.354 µM | TGI (RXF 393 renal): 2.28 µM | GI50 (SW-620 colon): 0.422 µM | TGI (SW-620 colon): > 100 µM | GI50 (KM12 colon): 0.46 µM | TGI (KM12 colon): > 100 µM | GI50 (BT-549 breast): 0.568 µM | TGI (BT-549 breast): 12.4 µM | GI50 (HS 578T breast): 0.368 µM | TGI (HS 578T breast): 32.8 µM | GI50 (MDA-MB-435): 0.214 µM | TGI (MDA-MB-435): 0.507 µM | GI50 (SNB-19 CNS): 0.811 µM | TGI (SNB-19 CNS): > 100 µM | GI50 (DU-145 prostate): 1.04 µM | TGI (DU-145 prostate): > 38.6 µM | GI50 (OVCAR-4 ovarian): > 27.3 µM | TGI (OVCAR-4 ovarian): > 100 µM | GI50 (HT29 colon): 0.387 µM | TGI (HT29 colon): > 100 µM | GI50 (SN12C renal): 0.797 µM | TGI (SN12C renal): > 100 µM | GI50 (HCT-116 colon): 0.376 µM | TGI (HCT-116 colon): > 100 µM | GI50 (OVCAR-3 ovarian): 0.316 µM | TGI (OVCAR-3 ovarian): 1.69 µM | GI50 (T-47D breast): 0.639 µM | TGI (T-47D breast): > 100 µM | GI50 (ACHN renal): 0.65 µM | TGI (ACHN renal): > 58.2 µM | GI50 (EKVX NSCLC): 1.8 µM | TGI (EKVX NSCLC): > 100 µM | GI50 (SF-295 CNS): 0.529 µM | TGI (SF-295 CNS): 8.83 µM | GI50 (HL-60(TB) leukemia): 0.271 µM | TGI (HL-60(TB) leukemia): 0.775 µM | GI50 (HCC-2998 colon): 1.19 µM | TGI (HCC-2998 colon): > 100 µM | GI50 (M14 melanoma): 0.283 µM | GI50 (SR leukemia): 0.344 µM | TGI (SR leukemia): > 100 µM | GI50 (SF-268 CNS): 5.5 µM | TGI (SF-268 CNS): > 100 µM | GI50 (SK-MEL-5 melanoma): 0.529 µM | TGI (SK-MEL-5 melanoma): > 85.9 µM | GI50 (NCI-H460 lung): 0.439 µM | TGI (NCI-H460 lung): > 100 µM | GI50 (HOP-92 NSCLC): 1.55 µM | TGI (HOP-92 NSCLC): 78.7 µM | GI50 (K-562 leukemia): 0.342 µM | TGI (K-562 leukemia): > 100 µM | GI50 (NCI-H226 lung): 1.25 µM | TGI (NCI-H226 lung): > 83.2 µM | GI50 (MALME-3M melanoma): 0.595 µM | TGI (MALME-3M melanoma): > 100 µM | GI50 (COLO 205 colon): 0.987 µM | TGI (COLO 205 colon): > 100 µM | GI50 (NCI-H23 lung): 1.51 µM | TGI (NCI-H23 lung): 37.2 µM | GI50 (NCI-H522 lung): 0.447 µM | TGI (NCI-H522 lung): > 76 µM | GI50 (UO-31 renal): 0.673 µM | TGI (UO-31 renal): > 100 µM | GI50 (CCRF-CEM leukemia): 0.381 µM | TGI (CCRF-CEM leukemia): > 100 µM | GI50 (HCT-15 colon): 0.394 µM | TGI (HCT-15 colon): > 100 µM | GI50 (A498 renal): 0.186 µM | TGI (A498 renal): 0.728 µM | GI50 (OVCAR-5 ovarian): 1.21 µM | TGI (OVCAR-5 ovarian): > 100 µM

CCCCCc1cc2c(cc1O)CC[C@@H]1[C@@H]2CC[C@]2(C)[C@@H](O)CC[C@@H]12
TGI (NCI/ADR-RES ovarian): 37.7 µM | TGI (SF-539 CNS): 39.5 µM | TGI (PC-3 prostate): 33.1 µM | TGI (HOP-62 NSCLC): 41.7 µM | TGI (SK-OV-3 ovarian): 45 µM | TGI (MOLT-4 leukemia): 85.3 µM | TGI (RPMI-8226 leukemia): 62.2 µM | TGI (UACC-257 melanoma): 43.1 µM | TGI (MCF7 breast): 40.2 µM | TGI (IGROV1 ovarian): 36.9 µM | TGI (TK-10 renal): 34 µM | TGI (786-0 renal): 28.9 µM | TGI (SK-MEL-2 melanoma): 43.5 µM | TGI (CAKI-1 renal): 40.4 µM | TGI (MDA-MB-231 breast): 33.3 µM | TGI (SNB-75 CNS): 30.5 µM | TGI (OVCAR-8 ovarian): 43 µM | TGI (UACC-62 melanoma): 35.4 µM | TGI (SK-MEL-28 melanoma): 30.7 µM | TGI (LOX IMVI melanoma): 39.2 µM | TGI (A549 NSCLC): 37.9 µM | TGI (U251 CNS): 38.1 µM | TGI (RXF 393 renal): 38.3 µM | TGI (SW-620 colon): 46.4 µM | TGI (KM12 colon): 26.1 µM | TGI (HS 578T breast): 46.5 µM | TGI (MDA-MB-435): 30.6 µM | TGI (SNB-19 CNS): 40.3 µM | TGI (DU-145 prostate): 31.4 µM | TGI (OVCAR-4 ovarian): 42.8 µM | TGI (HT29 colon): 41.2 µM | TGI (SN12C renal): 29.8 µM | TGI (HCT-116 colon): 31.6 µM | TGI (OVCAR-3 ovarian): 29.4 µM | TGI (T-47D breast): 55.5 µM | TGI (ACHN renal): 27.5 µM | TGI (EKVX NSCLC): 36.8 µM | TGI (SF-295 CNS): 28.2 µM | TGI (HL-60(TB) leukemia): 41.4 µM | TGI (MDA-N): 35.1 µM | TGI (HCC-2998 colon): 40 µM | TGI (M14 melanoma): 29.4 µM | TGI (SF-268 CNS): 38.9 µM | TGI (SK-MEL-5 melanoma): 34.7 µM | TGI (NCI-H460 lung): 36.5 µM | TGI (HOP-92 NSCLC): 32.3 µM | TGI (K-562 leukemia): 34.9 µM | TGI (NCI-H226 lung): 32.6 µM | TGI (MALME-3M melanoma): 35.5 µM | TGI (COLO 205 colon): 29.6 µM | TGI (NCI-H23 lung): 40.3 µM | TGI (NCI-H522 lung): 42.7 µM | TGI (UO-31 renal): 28.4 µM | TGI (CCRF-CEM leukemia): 92.8 µM | TGI (HCT-15 colon): 31.3 µM | TGI (A498 renal): 36.1 µM | TGI (OVCAR-5 ovarian): 33.6 µM
